*1 amine or outer side, *2 acyl side, *3 side chain or, on linkers, in order; H or OH if unused. Where a SMILES comes first, the peptide text is derived from it. Bridges are numbered along the chain shown (N, C = ends). [ ]: non-standard residue; d: D form. The star is where a group is joined. NMeAla(5-Cl-2-cPrO-3-pyridyl) = CN[C@@H](Cc1cc(Cl)cnc1OC1CC1)C(=O)O; X58 = CC(C)C(=O)N1CC=C(c2ccc(Cl)cc2C[C@@H](C(=O)[*:2])N(C)[*:1])CC1; X105 = CN([C@@H](Cc1cc(Cl)ccc1-c1cnn(C2CCOC2)c1)C(=O)[*:2])[*:1]; X86 = CN([C@@H](Cc1cc(Cl)ccc1-c1cnn(C2CCOCC2)c1)C(=O)[*:2])[*:1]; X68 = CN([C@@H](Cc1cc(Cl)ccc1-c1cnn(C2CC2)c1)C(=O)[*:2])[*:1]; X79 = CC(C)n1cc(-c2ccc(Cl)cc2C[C@@H](C(=O)[*:2])N(C)[*:1])cn1; NMehhhLys(Me) = CN([C@@H](CCCCCCCN(C)[*:3])C(=O)[*:2])[*:1]; NMe3Pal(2-OiPr,5-Cl) = CN[C@@H](Cc1cc(Cl)cnc1OC(C)C)C(=O)O; NMe(hhhLys) = CN([C@@H](CCCCCCCN[*:3])C(=O)[*:2])[*:1]; X28 = CN([C@@H](Cc1cc(Cl)cnc1OC1CCC1)C(=O)[*:2])[*:1]; Cyclobutanecarbonyl(1-CF3) = O=C(C1(C(F)(F)F)CCC1)*; X94 = CN([C@@H](Cc1cc(F)ccc1C1CC1)C(=O)[*:2])[*:1]; cBuCO(3,3-F2-1-CF3) = O=C(C1(C(F)(F)F)CC(F)(F)C1)*; Pro(trans-4-F) = O=C(O)[C@@H]1C[C@@H](F)CN1; Gly(cPr) = N[C@H](C(=O)O)C1CC1
Columns and labels:
OVCAR3 cells = experiment: MTT proliferation assay, OVCAR3; type: cell-based; conditions: 5 days compound exposure, 1:3 serial dilution starting at 10 μM;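 also: compound given as an 8- or 10-point series, one day after plating, with exposure covering roughly 3-4 cell doublings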
WI-38 cells = experiment: MTT proliferation assay, WI-38; type: cell-based; conditions: 3 days compound exposure, 1:3 serial dilution starting at 10 μM;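 also: Eight- or ten-point dilution series, with exposure length chosen to span about three to four cell doublings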
CyclinE1/CDK2 = biological target: T1, CyclinE1/CDK2 (Homo sapiens, UniProt P24864); experiment: Fluorescence Polarization (FP) competitive binding assay, Cyclin E1/Cdk2; conditions: 10 nM Cyclin E1/Cdk2, 2 nM FAM probe; average of 2-3 independent experiments; read-out: Cyclin E FP IC50;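 also: readings taken after two-hour equilibration at room temperature in HEPES buffer with NaCl, DTT, NP-40 and BSA, IC50 fitted from eight-concentration serial dilution series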
T1 construct: purchased Eurofins, discovery 14-475

CyclinB1/CDK1 = biological target: T2, CyclinB1/CDK1 (Homo sapiens, UniProt P14635); experiment: Fluorescence Polarization (FP) competitive binding assay, Cyclin B1/Cdk1; conditions: 10 nM Cyclin B1/Cdk1, 2 nM FAM probe; average of 2-3 independent experiments; read-out: Cyclin B FP IC50;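 also: fluorescence polarization read after equilibration at room temperature, with IC50 taken from serially diluted dose-response curves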
T2 construct: purchased Eurofins, discovery 14-450

NCI-H1048 cells = experiment: MTT proliferation assay, NCI-H1048; type: cell-based; conditions: 5 days compound exposure, 1:3 serial dilution starting at 10 μM;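 also: Dose-response in 96-well plates over 8 or 10 concentration points, with exposure spanning 3-4 cell doublings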
CyclinA2/CDK2 = biological target: T3, CyclinA2/CDK2 (Homo sapiens, UniProt P20248); experiment: Fluorescence Polarization (FP) competitive binding assay, Cyclin A2/Cdk2; conditions: 8 nM Cyclin A2/Cdk2, 2 nM FAM probe; average of 2-3 independent experiments; read-out: Cyclin A FP IC50;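 also: plates equilibrated two hours at room temperature before polarization reading, IC50 fitted from eight-concentration compound titration curves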
T3 construct: purchased CRELUX Protein Services

| SMILES | GI50 (OVCAR3 cells) [nM] | GI50 (WI-38 cells) [nM] | IC50 (CyclinE1/CDK2) [nM] | IC50 (CyclinB1/CDK1) [nM] | GI50 (NCI-H1048 cells) [nM] | IC50 (CyclinA2/CDK2) [nM] |
| --- | --- | --- | --- | --- | --- | --- |
| CC(C)C[C@@H]1NC(=O)[C@@H](N(C)C(=O)[C@@H](NC(=O)[C@@H]2C[C@@H](F)CN2C(=O)C2(C(F)(F)F)CCC2)C2CC2)CC=CCCCCN(C)C(=O)[C@H](Cc2cc(Cl)cnc2OC2CC2)N(C)C1=O [Example 106] | 540 | 6390 | 240 | 20 | 410 | 120 |
| CC(C)C[C@@H]1NC(=O)[C@@H](N(C)C(=O)[C@@H](NC(=O)[C@@H]2C[C@@H](F)CN2C(=O)C2(C(F)(F)F)CCC2)C2CC2)CCCCCCCN(C)C(=O)[C@H](Cc2cc(Cl)cnc2OC2CC2)N(C)C1=O [Example 109] ({Cyclobutanecarbonyl(1-CF3)}-[Pro(trans-4-F)][Gly(cPr)][NMehhhLys(Me)]L[NMeAla(5-Cl-2-cPrO-3-pyridyl)]; lactam 3-C) | 20 | 9520 | 170 | 20 | 20 | 40 |
| CC(C)C[C@@H]1NC(=O)[C@@H](N(C)C(=O)[C@@H](NC(=O)[C@@H]2C[C@@H](F)CN2C(=O)C2(C(F)(F)F)CC(F)(F)C2)C2CC2)CCCCCCCN(C)C(=O)[C@H](Cc2cc(Cl)ccc2-c2cnn(C3CC3)c2)N(C)C1=O [Example 110] ({cBuCO(3,3-F2-1-CF3)}-[Pro(trans-4-F)][Gly(cPr)][NMehhhLys(Me)]L[X68]; lactam 3-C) | 10 | 4800 | 330 | 20 | 10 | 20 |
| CC(C)C[C@@H]1NC(=O)[C@@H](N(C)C(=O)[C@@H](NC(=O)[C@@H]2C[C@@H](F)CN2C(=O)C2(C(F)(F)F)CC(F)(F)C2)C2CC2)CCCCCCCN(C)C(=O)[C@H](Cc2cc(Cl)ccc2-c2cnn(C(C)C)c2)N(C)C1=O [Example 111] ({cBuCO(3,3-F2-1-CF3)}-[Pro(trans-4-F)][Gly(cPr)][NMehhhLys(Me)]L[X79]; lactam 3-C) | 10 | 8130 | 280 | 20 | 10 | 20 |
| CC(C)C[C@@H]1NC(=O)[C@@H](N(C)C(=O)[C@@H](NC(=O)[C@@H]2C[C@@H](F)CN2C(=O)C2(C(F)(F)F)CC(F)(F)C2)C2CC2)CCCCCCCN(C)C(=O)[C@H](Cc2cc(Cl)ccc2-c2cnn(C3CCOC3)c2)N(C)C1=O (stereo partly drawn) [Example 113] ({cBuCO(3,3-F2-1-CF3)}-[Pro(trans-4-F)][Gly(cPr)][NMehhhLys(Me)]L[X105]; lactam 3-C) | 10 | 7240 | 310 | 20 | 10 | 20 |
| CC(C)C[C@@H]1NC(=O)[C@@H](N(C)C(=O)[C@@H](NC(=O)[C@@H]2C[C@@H](F)CN2C(=O)C2(C(F)(F)F)CC(F)(F)C2)C2CC2)CCCCCCCN(C)C(=O)[C@H](Cc2cc(Cl)ccc2-c2cnn(C3CCOCC3)c2)N(C)C1=O [Example 114] ({cBuCO(3,3-F2-1-CF3)}-[Pro(trans-4-F)][Gly(cPr)][NMehhhLys(Me)]L[X86]; lactam 3-C) | 10 | 7190 | 400 | 20 | 10 | 20 |
| Cc1nnc(-c2ccc(Cl)cc2C[C@H]2C(=O)N(C)CCCCC=CC[C@H](N(C)C(=O)[C@@H](NC(=O)[C@@H]3C[C@@H](F)CN3C(=O)C3(C(F)(F)F)CCC3)C3CC3)C(=O)N[C@@H](CC(C)C)C(=O)N2C)o1 [Example 115] | 60 | 11000 | 170 | 20 | 70 | 40 |
| CC(C)C[C@@H]1NC(=O)[C@@H](N(C)C(=O)[C@@H](NC(=O)[C@@H]2C[C@@H](F)CN2C(=O)C2(C(F)(F)F)CCC2)C2CC2)CCCCCCCN(C)C(=O)[C@H](Cc2cc(Cl)cnc2OC(C)C)N(C)C1=O [Example 119] ({Cyclobutanecarbonyl(1-CF3)}-[Pro(trans-4-F)][Gly(cPr)][NMehhhLys(Me)]L[NMe3Pal(2-OiPr,5-Cl)]; lactam 3-C) | 300 | 8710 | 100 | 20 | 250 | 30 |
| CC(C)C[C@@H]1NC(=O)[C@@H](N(C)C(=O)[C@@H](NC(=O)[C@@H]2C[C@@H](F)CN2C(=O)C2(C(F)(F)F)CC(F)(F)C2)C2CC2)CCCCCCCN(C)C(=O)[C@H](Cc2cc(F)ccc2C2CC2)N(C)C1=O [Example 121] ({cBuCO(3,3-F2-1-CF3)}-[Pro(trans-4-F)][Gly(cPr)][NMehhhLys(Me)]L[X94]; lactam 3-C) | 70 | 7610 | 130 | 20 | 40 | 50 |
| CC(C)C[C@@H]1NC(=O)[C@@H](N(C)C(=O)[C@@H](NC(=O)[C@@H]2C[C@@H](F)CN2C(=O)C2(C(F)(F)F)CC(F)(F)C2)C2CC2)CC=CCCCCNC(=O)[C@H](Cc2cc(Cl)cnc2OC2CC2)N(C)C1=O [Example 129] | 2580 | 6880 | 820 | 20 | 1460 | 210 |
| CC(C)C[C@@H]1NC(=O)[C@@H](N(C)C(=O)[C@@H](NC(=O)[C@@H]2N[C@@H](F)CC2C(=O)C2(C(F)(F)F)CC(F)(F)C2)C2CC2)CC=CCCCCN(C)C(=O)[C@H](Cc2cc(Cl)cnc2OC(C)C)N(C)C1=O (stereo partly drawn) [Example 130] | 1550 | 8990 | 310 | 20 | 700 | 70 |
| CC(C)C[C@@H]1NC(=O)[C@@H](N(C)C(=O)[C@@H](NC(=O)[C@@H]2C[C@@H](F)CN2C(=O)C2(C(F)(F)F)CCC2)C2CC2)CC=CCCCCN(C)C(=O)[C@H](Cc2cc(Cl)cnc2OC(C)C)N(C)C1=O [Example 137] | 760 | 4580 | 130 | 20 | 600 | 60 |
| CC(C)C[C@@H]1NC(=O)[C@@H](N(C)C(=O)[C@@H](NC(=O)[C@@H]2C[C@@H](F)CN2C(=O)C2(C(F)(F)F)CCC2)C2CC2)CCCCCCCNC(=O)[C@H](Cc2cc(Cl)cnc2OC(C)C)N(C)C1=O [Example 138] ({Cyclobutanecarbonyl(1-CF3)}-[Pro(trans-4-F)][Gly(cPr)][NMe(hhhLys)]L[NMe3Pal(2-OiPr,5-Cl)]; lactam 3-C) | 280 | 6670 | 110 | 20 | 200 | 30 |
| CC(C)C[C@@H]1NC(=O)[C@@H](N(C)C(=O)[C@@H](NC(=O)[C@@H]2C[C@@H](F)CN2C(=O)C2(C(F)(F)F)CCC2)C2CC2)CCCCCCCN(C)C(=O)[C@H](Cc2cc(Cl)cnc2OC2CCC2)N(C)C1=O [Example 139] ({Cyclobutanecarbonyl(1-CF3)}-[Pro(trans-4-F)][Gly(cPr)][NMehhhLys(Me)]L[X28]; lactam 3-C) | 150 | 6420 | 100 | 20 | 70 | 20 |
| CC(C)C[C@@H]1NC(=O)[C@@H](N(C)C(=O)[C@@H](NC(=O)[C@@H]2C[C@@H](F)CN2C(=O)C2(C(F)(F)F)CC(F)(F)C2)C2CC2)CCCCCCCN(C)C(=O)[C@H](Cc2cc(Cl)cnc2OC2CCC2)N(C)C1=O [Example 140] ({cBuCO(3,3-F2-1-CF3)}-[Pro(trans-4-F)][Gly(cPr)][NMehhhLys(Me)]L[X28]; lactam 3-C) | 130 | 9250 | 120 | 20 | 50 | 20 |
| CC(C)C[C@@H]1NC(=O)[C@@H](N(C)C(=O)[C@@H](NC(=O)[C@@H]2C[C@@H](F)CN2C(=O)C2(C(F)(F)F)CCC2)C2CC2)CCCCCCCNC(=O)[C@H](Cc2cc(Cl)cnc2OC2CCC2)N(C)C1=O [Example 141] ({Cyclobutanecarbonyl(1-CF3)}-[Pro(trans-4-F)][Gly(cPr)][NMe(hhhLys)]L[X28]; lactam 3-C) | 190 | 3390 | 100 | 20 | 90 | 40 |
| CC(C)C[C@@H]1NC(=O)[C@@H](N(C)C(=O)[C@@H](NC(=O)[C@@H]2C[C@@H](F)CN2C(=O)C2(C(F)(F)F)CC(F)(F)C2)C2CC2)CCCCCCCNC(=O)[C@H](Cc2cc(Cl)cnc2OC2CCC2)N(C)C1=O [Example 142] ({cBuCO(3,3-F2-1-CF3)}-[Pro(trans-4-F)][Gly(cPr)][NMe(hhhLys)]L[X28]; lactam 3-C) | 190 | 10200 | 150 | 20 | 110 | 40 |
| CC(C)C[C@@H]1NC(=O)[C@@H](N(C)C(=O)[C@@H](NC(=O)[C@@H]2C[C@@H](F)CN2C(=O)C2(C(F)(F)F)CC(F)(F)C2)C2CC2)CCCCCCCN(C)C(=O)[C@H](Cc2cc(Cl)ccc2C2=CCN(C(=O)C(C)C)CC2)N(C)C1=O [Example 143] ({cBuCO(3,3-F2-1-CF3)}-[Pro(trans-4-F)][Gly(cPr)][NMehhhLys(Me)]L[X58]; lactam 3-C) | 20 | 5180 | 940 | 20 | 10 | 20 |

— US20240408169A1 (priority 2023, published 2024)
